From patent US8981094B2, “Piperidine/piperazine derivatives” (Janssen Pharmaceutica N.V., priority 2007, dated 2015)

target: T1, human DGAT1 (Homo sapiens, UniProt O75907); assay: Inhibition of DGAT1 activity, FlashPlate assay with DGAT1 membrane preparations and substrate micelles; type: biochemical; settings: pIC50 = -logIC50, IC50 values expressed in M
T1 construct: FLAG (N); made in house; host or cells: SF9 insect cells (pFastBac baculovirus); total cell membranes
T1 sequence (O75907 1-488): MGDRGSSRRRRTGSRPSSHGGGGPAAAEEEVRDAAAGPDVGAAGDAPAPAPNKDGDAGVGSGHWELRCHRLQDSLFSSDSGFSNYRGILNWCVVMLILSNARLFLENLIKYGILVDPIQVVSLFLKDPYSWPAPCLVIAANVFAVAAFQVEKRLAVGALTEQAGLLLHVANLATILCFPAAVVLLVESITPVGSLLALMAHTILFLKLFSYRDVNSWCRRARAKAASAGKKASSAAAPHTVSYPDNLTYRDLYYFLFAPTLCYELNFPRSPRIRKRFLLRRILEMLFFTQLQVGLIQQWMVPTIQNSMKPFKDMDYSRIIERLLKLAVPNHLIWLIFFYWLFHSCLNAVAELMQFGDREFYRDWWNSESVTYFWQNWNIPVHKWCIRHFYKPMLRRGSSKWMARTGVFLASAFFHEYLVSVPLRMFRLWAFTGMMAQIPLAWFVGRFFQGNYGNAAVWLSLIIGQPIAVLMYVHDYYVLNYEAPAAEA
Description: A) Measurement of Inhibition of DGAT1 Activity by the Present Compounds
The inhibiting activity of the present compounds on DGAT1 activity was screened in a single well procedure assay using DGAT1 comprising membrane preparations and DGAT1 substrate comprising micelles and determining formed radio-active triacylglycerol coming in close proximity of a flashplate surface by radio luminescence.
Said assay is described in full detail in WO2006/067071, the content of which is incorporated herein by reference.
By DGAT1 activity is meant the transfer of coenzyme A activated fatty acids to the 3-position of 1,2-diacylglycerols, thus forming a triglyceride molecule, by enzyme DGAT1.
human DGAT1 (NM012079.2) was cloned into the pFastBac vector, containing translation start, a FLAG-tag at the N-terminus as described in literature and a viral Kozak sequence (AAX) preceding the ATG to improve expression in insect cells. Expression was done as described in literature (Cases, S., Smith, S. J., Zheng, Y., Myers H. M., Lear, S. R., Sande, E., Novak, S., Collins, C., Welch, C. B., Lusis, A. J., Erickson, S. K. and Farese, R. V. (1998) Proc. Natl. Acad. Sci. USA 95, 13018-13023.) using SF9 cells.
72 h transfected SF9 cells were collected by centrifugation (13000 rpm-15 min-4° C.) and lysed in 2×500 ml lysisbuffer (0.1M Sucrose, 50 mM KCl, 40 mM KH2PO4, 30 mM EDTA pH 7.2. Cells were homogenized by cell disruptor. After centrifugation 1380 rpm-15 min-4° C. (SN discarded), pellet was resuspended in 500 ml lysisbuffer and total cell membranes collected by ultracentrifugation at 34000 rpm(100 000 g) for 60 min (4° C.). The collected membranes were resuspended in lysis buffer, divided in aliquots and stored with 10% glycerol at −80° C. until use.
Add 1 ml dioleoyl-sn-glycerol (10 mg/ml) to 10 ml of L-α-phosphatidylcholine (1 mg/ml) and 10 ml of L-α-phosphatidyl-L-serine (1 mg/ml) in a thick glass recipient. Evaporate under nitrogen and put on ice for 15 minutes. Reconstitute in 10 ml Tris/HCl (10 mM, pH 7.4) by sonication on ice. The sonification process consists of sonification cycles of 10 seconds in the sonification bath followed by 10 seconds cool down on ice and repeating this sonification cycle till a homogeneous solution is obtained (takes about 15 minutes). The thus obtained micelles are stored at −20° C. till later use and contain DAG at a final concentration of 1.61 mM.
c) Substrate mix (for 1 384 well plate=3840 μl) • 612 μl micelles stock (51 μM final) • 16.6 μl oleoylCoA 9.7 mM • 23 μl [^3H]-oleoylCoA (49 Ci/mmol, 500 μCi/ml) • 3188.4 μl Tris pH 7.4, 10 mM
d) Enzyme mix (for 1 384 well plate=3520 μl) (5 μg/ml) • Add 11.73 μl of DGAT membrane stock (1500 μg/ml stock) to 3508 μl assay buffer.
e) Stop mix (for 1 384 well plate=7.68 ml) (250 mM) • Add 384 μl of N-ethylmaleimide (5M) to 3.456 ml DMSO 100%, and further dilute 3.84 ml of said solution with 3.84 ml DMSO 10%.
DGAT activity in membrane preparations was assayed in 50 mM Tris-HCl (pH 7.4), 150 mM MgCl2, 1 mM EDTA and 0.2% BSA, containing 50 μM DAG, 32 μg/ml PC/PS and 8.4 μM [^3H]-oleoylCoA (at a specific activity of 30 nCi/well) in a final volume of 50 μl in 384-well format using the red shifted Basic Image FlashPlate™ (Perkin Elmer Cat.No. SMP400).
In detail, 10 μl enzyme mix and 10 μl substrate mix were added to 30 μl of assay buffer, optionally in the presence of 1 μl DMSO (blank and controls) or 1 μl of the compound to be tested. This reaction mixture was incubated for 120 minutes at 37° C. and the enzymatic reaction stopped by adding 20 μl of the stop mix. The plates were sealed and the vesicles allowed to settle overnight at room temperature. Plates were centrifuged for 5 minutes at 1500 rpm and measured in Leadseeker. […]

IC50 | Structure (SMILES)
0.214 µM | O=C(CNCc1ccccc1)Nc1ccc(C2CCN(C(=O)Nc3c(Cl)cccc3Cl)CC2)cc1 [Compound 117]
0.347 µM | O=C(CNCc1ccc(F)cc1)Nc1ccc(C2CCN(C(=O)Nc3c(Cl)cccc3Cl)CC2)cc1 [Compound 118]
0.389 µM | O=C(CNCc1ccco1)Nc1ccc(C2CCN(C(=O)Nc3c(Cl)cccc3Cl)CC2)cc1 [Compound 119]
3.8 µM | N#CCCNCC(=O)Nc1ccc(C2CCN(C(=O)Nc3c(Cl)cccc3Cl)CC2)cc1 [Compound 121]
0.562 µM | CCCNCC(=O)Nc1ccc(C2CCN(C(=O)Nc3c(Cl)cccc3Cl)CC2)cc1 [Compound 122]
0.871 µM | O=C(Cn1ccnc1)Nc1ccc(C2CCN(C(=O)Nc3c(Cl)cccc3Cl)CC2)cc1 [Compound 123]
0.166 µM | O=C(CC1CCCCC1)Nc1ccc(C2CCN(C(=O)Nc3c(Cl)cccc3Cl)CC2)cc1 [Compound 124]
0.646 µM | O=C(CCN1CCOCC1)Nc1ccc(C2CCN(C(=O)Nc3c(Cl)cccc3Cl)CC2)cc1 [Compound 125]
0.0676 µM | COC(=O)CCCC(=O)Nc1ccc(C2CCN(C(=O)Nc3c(Cl)cccc3Cl)CC2)cc1 [Compound 126]
2.09 µM | O=C(CCN1CCCCC1)Nc1ccc(C2CCN(C(=O)Nc3c(Cl)cccc3Cl)CC2)cc1 [Compound 128]
0.245 µM | C#CCCC(=O)Nc1ccc(C2CCN(C(=O)Nc3c(Cl)cccc3Cl)CC2)cc1 [Compound 129]
0.038 µM | CCCCC(=O)Nc1ccc(C2CCN(C(=O)Nc3c(Cl)cccc3Cl)CC2)cc1 [Compound 130]
0.0257 µM | O=C(CCc1ccccc1)Nc1ccc(C2CCN(C(=O)Nc3c(Cl)cccc3Cl)CC2)cc1 [Compound 131]
0.0447 µM | O=C(Cc1ccsc1)Nc1ccc(C2CCN(C(=O)Nc3c(Cl)cccc3Cl)CC2)cc1 [Compound 132]
0.038 µM | O=C(CCc1ccco1)Nc1ccc(C2CCN(C(=O)Nc3c(Cl)cccc3Cl)CC2)cc1 [Compound 133]
0.0155 µM | COc1ccc(CC(=O)Nc2ccc(C3CCN(C(=O)Nc4c(Cl)cccc4Cl)CC3)cc2)cc1 [Compound 134]
0.389 µM | O=C(CCN1CCOCC1)Nc1ccc(N2CCN(C(=O)Nc3c(Cl)cccc3Cl)CC2)cc1 [Compound 136]
3.39 µM | CN(C)C(=O)CCC(=O)Nc1ccc(N2CCN(C(=O)Nc3c(Cl)cccc3Cl)CC2)cc1 [Compound 137]
0.12 µM | C#CCCC(=O)Nc1ccc(N2CCN(C(=O)Nc3c(Cl)cccc3Cl)CC2)cc1 [Compound 139]
0.0191 µM | CCCCC(=O)Nc1ccc(N2CCN(C(=O)Nc3c(Cl)cccc3Cl)CC2)cc1 [Compound 140]
0.0138 µM | O=C(Cc1ccsc1)Nc1ccc(N2CCN(C(=O)Nc3c(Cl)cccc3Cl)CC2)cc1 [Compound 142]
0.0182 µM | O=C(CCc1ccco1)Nc1ccc(N2CCN(C(=O)Nc3c(Cl)cccc3Cl)CC2)cc1 [Compound 143]
0.00575 µM | COc1ccc(CC(=O)Nc2ccc(N3CCN(C(=O)Nc4c(Cl)cccc4Cl)CC3)cc2)cc1 [Compound 144]
0.055 µM | COC(=O)CCCC(=O)Nc1ccc(N2CCN(C(=O)Nc3c(Cl)cccc3Cl)CC2)cc1 [Compound 145]

IC50 | Structure (SMILES)
10.5 µM | C=CCC(N)C(=O)Nc1ccc(C2CCN(C(=O)Nc3c(Cl)cccc3Cl)CC2)cc1 (stereo not drawn) [Compound 146]
7.08 µM | CC(N)C(=O)Nc1ccc(C2CCN(C(=O)Nc3c(Cl)cccc3Cl)CC2)cc1 (stereo not drawn) [Compound 148]
7.24 µM | O=C(CC1CCCN1)Nc1ccc(C2CCN(C(=O)Nc3c(Cl)cccc3Cl)CC2)cc1 (stereo not drawn) [Compound 149]
6.92 µM | NCCC(=O)Nc1ccc(C2CCN(C(=O)Nc3c(Cl)cccc3Cl)CC2)cc1 [Compound 150]
6.92 µM | CCC(N)C(=O)Nc1ccc(C2CCN(C(=O)Nc3c(Cl)cccc3Cl)CC2)cc1 (stereo not drawn) [Compound 151]
0.112 µM | O=C(CC(c1ccc(Cl)cc1)c1ccc(Cl)cc1)c1ccc(N2CCN(C(=O)Nc3c(Cl)cccc3Cl)CC2)cc1 [Compound 162]
1.41 µM | COCCOCC(=O)N(C)CC(=O)Nc1ccc(N2CCN(C(=O)Nc3c(Cl)cccc3Cl)CC2)cc1 [Compound 163]
0.0224 µM | CN(CC(=O)Nc1ccc(N2CCN(C(=O)Nc3c(Cl)cccc3Cl)CC2)cc1)C(=O)CC(C)(C)C [Compound 167]
0.0309 µM | CC(C)CC(=O)N(C)CC(=O)Nc1ccc(N2CCN(C(=O)Nc3c(Cl)cccc3Cl)CC2)cc1 [Compound 168]
0.0537 µM | CCCC(=O)N(C)CC(=O)Nc1ccc(N2CCN(C(=O)Nc3c(Cl)cccc3Cl)CC2)cc1 [Compound 169]
0.245 µM | CCC(=O)N(C)CC(=O)Nc1ccc(N2CCN(C(=O)Nc3c(Cl)cccc3Cl)CC2)cc1 [Compound 170]
0.00617 µM | COc1cc(Cl)c(NC(=O)N2CCN(c3ccc(NC(=O)CCCc4ccccc4)cc3)CC2)c(Cl)c1 [Compound 190]
0.0447 µM | COc1ccc(CC(=O)Nc2ccc(N3CCN(C(=O)Nc4c(Cl)cc(OC)cc4OC)CC3)cc2)cc1 [Compound 191]
0.123 µM | O=C(CCCc1ccccn1)Nc1ccc(N2CCN(C(=O)Nc3c(Cl)cccc3Cl)CC2)cc1 [Compound 195]
1.91 µM | CC(C)(C)OC(=O)NC(CO)C(=O)Nc1ccc(C2CCN(C(=O)Nc3c(Cl)cccc3Cl)CC2)cc1 (stereo not drawn) [Compound 204]
0.398 µM | CCC(NC(=O)OC(C)(C)C)C(=O)Nc1ccc(C2CCN(C(=O)Nc3c(Cl)cccc3Cl)CC2)cc1 (stereo not drawn) [Compound 205]
0.269 µM | CC(NC(=O)OC(C)(C)C)C(=O)Nc1ccc(C2CCN(C(=O)Nc3c(Cl)cccc3Cl)CC2)cc1 (stereo not drawn) [Compound 206]
0.209 µM | C=CCC(NC(=O)OC(C)(C)C)C(=O)Nc1ccc(C2CCN(C(=O)Nc3c(Cl)cccc3Cl)CC2)cc1 (stereo not drawn) [Compound 207]
0.191 µM | CC(C)C(NC(=O)OC(C)(C)C)C(=O)Nc1ccc(C2CCN(C(=O)Nc3c(Cl)cccc3Cl)CC2)cc1 (stereo not drawn) [Compound 208]
0.166 µM | COCC(NC(=O)OC(C)(C)C)C(=O)Nc1ccc(C2CCN(C(=O)Nc3c(Cl)cccc3Cl)CC2)cc1 (stereo not drawn) [Compound 209]
0.155 µM | CSCC(NC(=O)OC(C)(C)C)C(=O)Nc1ccc(C2CCN(C(=O)Nc3c(Cl)cccc3Cl)CC2)cc1 (stereo not drawn) [Compound 210]
0.126 µM | CC(C)(C)OC(=O)NC(CC#N)C(=O)Nc1ccc(C2CCN(C(=O)Nc3c(Cl)cccc3Cl)CC2)cc1 (stereo not drawn) [Compound 211]
0.115 µM | CC(C)(C)OC(=O)NCC(=O)Nc1ccc(C2CCN(C(=O)Nc3c(Cl)cccc3Cl)CC2)cc1 [Compound 212]
0.107 µM | CCC(C)C(NC(=O)OC(C)(C)C)C(=O)Nc1ccc(C2CCN(C(=O)Nc3c(Cl)cccc3Cl)CC2)cc1 (stereo not drawn) [Compound 213]
